How the values were obtained:
[1] = test system: rats with MPTP microinfusion into the substantia nigra; experiment: Open field test (motor activity), MPTP model; type: in vivo; settings: oral
Protocol: The number of animals per group was ten (10) subjects. This number was estimated based on internationally recognized and scientifically validated protocols. The doses of the CBD-SINT formulation were determined by allometric extrapolation from the average dose used in human patients (600 mg/day, which in a 70 kg individual represents approximately 9 mg/kg), obtaining an average dose of ˜36 mg/kg CBD in rats.
For the calculation of the three doses, the intermediate dose was used as a reference, and then a higher and a lower dose was stipulated on a logarithmic scale. To stipulate the lowest dose, ⅓ of the median dose was used. For the higher dose, a safety factor of 10 times the lower dose was used. Thus, the doses of CBD-SINT used in this trial were: 12, 36 and 120 mg/kg. […]
CBD-SINT and placebo were administered orally (gavage) for 18 days prior to the administration of the neurotoxin by stereotactic surgery, and for another 10 days after surgery. After the administration of the neurotoxin, the behavioral (locomotor activity) and biochemical (brain dopamine dosage) parameters were evaluated after 24 hours and after 10 days. […]
The animals were placed on the central circle of the open field and its behavior evaluated for 5 minutes. […] Each animal was assessed individually, and the device was cleaned between animals with 5% alcohol solution (FIG. 15).

[2] = test system: Salmonella typhimurium TA100; experiment: AMES test, strain TA100; type: cell-based; settings: TA100, with (+S9) and without (-S9) metabolic activation, 62.5-375 μg/plate
Text: For the AMES test, the TA 100 and TA 98 strains of Salmonella typhimurium were used. The strain TA 100, which detects mutagens causing base pair replacement in DNA, contains a mutation in the hisG gene (hisG46), which codes for the first histidine biosynthesis enzyme, with the CG pair as the preferred point for reversion. The strain TA 98 has a mutation in the hisD gene to reverse eight repetitive GC residues and detects mutagenic compounds causing the DNA reading frame to shift. According to the methodology of direct incorporation in plates, developed by Maron and Ames (1983), different concentrations of CBD-SINT (375, 250, 125 and 62.5 μg/plate) were mixed with 0.1 mL of the bacteria culture and 2 mL of surface agar (top agar), supplemented with traces of histidine and biotin. For the tests with metabolic activation, 0.5 mL homogenized microsomal fraction S9 of rat liver (post-mitochondrial fraction, supplemented with a cofactor, prepared from the liver of rodents treated with an enzymatic inducing agent, arochloror 1254) (MOLTOX—Molecular Toxicology, USA) were added. As a negative control, double-distilled water (vehicle) was used. As a positive control for TA98, 4-nirophenylenediamine (NPD) dissolved in DMSO was used at a concentration of 10 μg/plate. […] After this period, the number of reversing colonies per plate was counted. […]

[3] = test system: rats (male and female); experiment: Single dose (acute) toxicity study in rats; type: in vivo
Protocol: The single-dose (acute) toxicity study was carried out with different groups of rats and mice (male and female) and according to the procedures recommended by OECD (2001) and ANVISA (2013).
After a 6 h-fasting period, the animals' body weight was determined, and the dose of the synthetic CBD was calculated. Two single doses (1000 and 2000 mg/kg) of synthetic CBD were administered orally (with the aid of a gavage probe) and intraperitoneally in different groups of rats and mice (male and female). Other different groups of rodents were treated with placebo and were considered as control groups.
The animals were carefully observed for any toxicity signs within the first eight hours after treatment, and daily for a period of 14 days. On the 15th day all animals were euthanized, and the respective anatomopathological investigations were performed on the 15th day after the treatments.

[4] = test system: DNA of male and female rats; settings: rats male and female, 500, 1000 and 2000 mg/kg orally, 48 hours, peripheral blood
Protocol: The negative control group received placebo by gavage and the positive control was treated with cyclophosphamide monohydrate (20 mg/kg—Sigma-Aldrich) intraperitoneally.

[5] = 1000 mg/kg and 2000 mg/kg intraperitoneally, single dose

C=C(C)[C@@H]1CCC(C)=C[C@H]1c1c(O)cc(CCCCC)cc1O [CBD-SINT, Cannabidiol]
latency time and frequency of standing compared to CBD-FITO in the same concentration [1]: a lower concentration had a more effective result
frequency of reversible mutants with the increase in concentration [2]: no increase
mutagenicity ratios (MR) [2]: less than 2
abdominal contortions during the first 8 hours [3, 5]: occasional abdominal contortions
activity during the first 8 hours of observation [3, 5]: significant decrease in its activity
daily feed and water consumption compared to placebo ([3]; 1000 and 2000 mg/kg, oral or intraperitoneal): no change
final body weight and body weight gains vs placebo ([3]; 1000 and 2000 mg/kg, oral or intraperitoneal, 14 days): similar
appearance and general behavior pattern until the end of the 14-days observation ([3]; 1000 and 2000 mg/kg, oral or intraperitoneal, after the first 8 h): no significant changes
absolute (g) or relative (%) weight of all organs vs placebo ([3]; after 14 days): no significant differences
histopathological analyzes ([3]; day 15): no significant changes
macroscopic examination of vital organs ([3]; day 15): did not disclose any abnormalities
deaths (LD50 not set forth) ([3]; doses up to 2000 mg/kg orally or intraperitoneally, 14 days): no deaths were observed
DNA damage (Damage Index and Damage Frequency) vs negative control (placebo) [4]: none of the tested doses of CBD-SINT induced any significant changes

— patent US11389423B2, “Pharmaceutical composition, excipient for the composition and use of the composition” (priority 2018, dated 2022)
